From patent US9738604B2, “Ethynylbenzene derivatives” (Duke University, priority 2010, dated 2017)
Values after ≈ are worked out from the molar mass of the structure shown. Where two headings read alike, the source gives them in different places.

Experiments:
E. coli W3110RL = test: microbe, parasite or virus in culture; format: cell-based; conditions: for MIC E. coli W3110RL: E. coli with lpxC of R. leguminosarum, 22 hours at 37° C., MTT; for MIC: Escherichia coli, W3110RL, 22 h, read-out: MIC E. coli W3110RL
E. coli W3110 = test: microbe, parasite or virus in culture; format: cell-based; conditions: for MIC: Escherichia coli, W3110, 22 h, read-out: MIC E. coli W3110
N. gonorrhoeae FA19 = test: MIC, N. gonorrhoeae drug-sensitive strain; format: cell-based; conditions: for MIC: Neisseria gonorrhoeae, read-out: MIC N. gonorrhoeae FA 19
[1] = tested on: Acinetobacter Baumannii antibiotic susceptible strain (Sus. A.b. Isolate); test: Disk diffusion assay, antibiotic susceptible strain; format: cell-based; set-up: key to diameter of the growth inhibition, Sus. A.b. Isolate: A: no detectable inhibition; B: 6-10 mm; C: 11-15 mm; D: ≧16; conditions: 2 μg of compound per disc, disc 6 mm in diameter; for zone of inhibition at 2 µg/disc: Acinetobacter baumannii, read-out: diameter of the growth inhibition, Sus. A.b. Isolate
N. gonorrhoeae 35/02 [2] = test: MIC, N. gonorrhoeae drug-resistant strain; format: cell-based; conditions: drug-resistant strain 35/02; for MIC: Neisseria gonorrhoeae
[3] = tested on: Acinetobacter Baumannii multidrug-resistant strain (MDR A.b. Isolate); test: Disk diffusion assay, multidrug-resistant strain; format: cell-based; set-up: key to diameter of the growth inhibition, MDR A.b. Isolate: A: no detectable inhibition; B: 6-10 mm; C: 11-15 mm; D: ≧16; conditions: 2 μg of compound per disc, disc 6 mm in diameter; for zone of inhibition at 2 µg/disc: Acinetobacter baumannii, read-out: diameter of the growth inhibition, MDR A.b. Isolate
P. aeruginosa (PAO1) = test: MIC, P. aeruginosa; format: cell-based; conditions: for MIC: Pseudomonas aeruginosa, read-out: MIC P. aeruginosa (PAO1)
E. coli W3110PA = test: microbe, parasite or virus in culture; format: cell-based; conditions: for MIC E. coli W3110PA: E. coli with lpxC of P. aeruginosa, 22 hours at 37° C., MTT; for MIC: Escherichia coli, W3110PA, 22 h, read-out: MIC E. coli W3110PA
N. gonorrhoeae 35/02 [4] = conditions: resistance profile of strain 35/02; cited from earlier work
[5] = P. aeruginosa PAO1, 22 hours at 37° C., MTT

Compound	diameter of the growth inhibition, MDR A.b. Isolate [3]	MIC (E. coli W3110RL)	MIC (E. coli W3110)	zone of inhibition at 2 µg/disc [1]	MIC (P. aeruginosa (PAO1); PAO1, 22 h)	MIC (E. coli W3110PA)	further results
C[C@@H](O)[C@H](NC(=O)c1ccc(C#CC#Cc2ccc(N)cc2)cc1)C(=O)NO [CPD-011, (2S,3R)-2-{4′-[(4″-aminophenyl)buta-1′,3′-diynyl]benzamido}-1,3-dihydroxybutanamide]	A	–	–	–	–	–	MIC E. coli W3110RL (E. coli W3110RL): B (1-10 μg/mL); MIC E. coli W3110 (E. coli W3110): A (key: A: <1 μg/mL; B: 1-10 μg/mL; C: 11-50 μg/mL; D: 51-100 μg/mL; E: >100 μg/mL); MIC N. gonorrhoeae FA 19 (N. gonorrhoeae FA19): C (2-4 μg/mL); diameter of the growth inhibition, Sus. A.b. Isolate [1]: A; MIC N. gonorrhoeae 35/02 (N. gonorrhoeae 35/02 [2]): D (5-7 μg/mL); MIC P. aeruginosa (PAO1) (P. aeruginosa (PAO1); [5]): A (<1 μg/mL); MIC E. coli W3110PA (E. coli W3110PA): A (<1 μg/mL)
C[C@@H](O)[C@H](NC(=O)c1ccc(C#CC#Cc2cccc(N)c2)cc1)C(=O)NO [CPD-012, (2S,3R)-2-{4′-[(3″-aminophenyl)buta-1′,3′-diynyl]benzamido}-1,3-dihydroxybutanamide]	A	–	–	–	–	–	MIC E. coli W3110RL (E. coli W3110RL): B (1-10 μg/mL); MIC E. coli W3110 (E. coli W3110): A (key: A: <1 μg/mL; B: 1-10 μg/mL; C: 11-50 μg/mL; D: 51-100 μg/mL; E: >100 μg/mL); diameter of the growth inhibition, Sus. A.b. Isolate [1]: A; MIC P. aeruginosa (PAO1) (P. aeruginosa (PAO1); [5]): A (<1 μg/mL); MIC E. coli W3110PA (E. coli W3110PA): A (<1 μg/mL)
C[C@@H](O)[C@H](NC(=O)c1ccc(C#CC#Cc2ccccc2N)cc1)C(=O)NO [CPD-013, (2S,3R)-2-{4′-[(2″-aminophenyl)buta-1′,3′-diynyl]benzamido}-1,3-dihydroxybutanamide]	A	–	–	–	–	–	MIC E. coli W3110RL (E. coli W3110RL): C (11-50 μg/mL); MIC E. coli W3110 (E. coli W3110): A (key: A: <1 μg/mL; B: 1-10 μg/mL; C: 11-50 μg/mL; D: 51-100 μg/mL; E: >100 μg/mL); MIC N. gonorrhoeae FA 19 (N. gonorrhoeae FA19): B (0.1-1 μg/mL); diameter of the growth inhibition, Sus. A.b. Isolate [1]: A; MIC N. gonorrhoeae 35/02 (N. gonorrhoeae 35/02 [2]): C (2-4 μg/mL); MIC P. aeruginosa (PAO1) (P. aeruginosa (PAO1); [5]): B (1-10 μg/mL); MIC E. coli W3110PA (E. coli W3110PA): A (<1 μg/mL)
CC(C)(O)[C@H](NC(=O)c1ccc(C#CC#Cc2ccc(N)cc2)cc1)C(=O)NO [CPD-037, (2S)-2-({4′-[4′-(4′-aminophenyl)buta-1′,3′-diyn-1-yl]phenyl}formamido)-N,3′-dihydroxy-3′-methylbutanamide]	–	1 to 10 µg/mL (≈ 2.55 to 25.5 µM)	< 1 µg/mL	11 to 15 mm	< 1 µg/mL	< 1 µg/mL	zone of inhibition at 2 µg/disc [3]: 6 to 10 mm
CC(C)(N)[C@H](NC(=O)c1ccc(C#CC#Cc2ccc(N)cc2)cc1)C(=O)NO [CPD-040, (2S)-3-amino-2-({4′-[4′-(4′-aminophenyl)buta-1′,3′-diyn-1-yl]phenyl}formamido)-N-hydroxy-3-methylbutanamide]	–	1 to 10 µg/mL (≈ 2.56 to 25.6 µM)	< 1 µg/mL	6 to 10 mm	< 1 µg/mL	< 1 µg/mL	MIC (N. gonorrhoeae FA19): 2 to 4 µg/mL (≈ 5.12 to 10.2 µM); MIC (N. gonorrhoeae 35/02 [2]): 5 to 7 µg/mL (≈ 12.8 to 17.9 µM); zone of inhibition at 2 µg/disc [3]: 6 to 10 mm
C[C@](O)(c1ccc(O)cc1)[C@H](NC(=O)c1ccc(C#CC#Cc2ccc(N)cc2)cc1)C(=O)NO [CPD-051, 4-((4-aminophenyl)buta-1,3-diynyl)-N-((2S)-3-hydroxy-1-(hydroxyamino)-3-(4-hydroxyphenyl)-1-oxobutan-2-yl)benzamide]	A	51 to 100 µg/mL (≈ 109 to 213 µM)	< 1 µg/mL	–	< 1 µg/mL	< 1 µg/mL	diameter of the growth inhibition, Sus. A.b. Isolate [1]: A
Nc1ccc(C#CC#Cc2ccc(C(=O)N[C@H](C(=O)NO)[C@H](O)C(F)F)cc2)cc1 [CPD-056, 4-((4-aminophenyl)buta-1,3-diynyl)-N-((2S,3S)-4,4-difluoro-3-hydroxy-1-(hydroxyamino)-1-oxobutan-2-yl)benzamide]	–	1 to 10 µg/mL (≈ 2.42 to 24.2 µM)	< 1 µg/mL	–	< 1 µg/mL	< 1 µg/mL	–
Nc1ccc(C#CC#Cc2ccc(C(=O)N[C@H](C(=O)NO)[C@H](O)C(F)(F)F)cc2)cc1 [CPD-057, 4-((4-aminophenyl)buta-1,3-diynyl)-N-((2S,3S)-4,4,4-trifluoro-3-hydroxy-1-(hydroxyamino)-1-oxobutan-2-yl)benzamide]	–	51 to 100 µg/mL (≈ 118 to 232 µM)	< 1 µg/mL	–	< 1 µg/mL	< 1 µg/mL	–
C[C@@](O)(C(F)F)[C@H](NC(=O)c1ccc(C#CC#Cc2ccc(N)cc2)cc1)C(=O)NO [CPD-058, 4-((4-aminophenyl)buta-1,3-diynyl)-N-((2S,3S)-4,4-difluoro-3-hydroxy-1-(hydroxyamino)-3-methyl-1-oxobutan-2-yl)benzamide]	–	< 1 µg/mL	< 1 µg/mL	11 to 15 mm	< 1 µg/mL	< 1 µg/mL	zone of inhibition at 2 µg/disc [3]: 11 to 15 mm
C[C@@H](O)[C@H](NC(=O)c1ccc(C#CCOc2ccc(N)cc2)cc1)C(=O)NO [CPD-059, 4-(3-(4-aminophenoxy)prop-1-ynyl)-N-((2S,3R)-3-hydroxy-1-(hydroxyamino)-1-oxobutan-2-yl)benzamide]	–	51 to 100 µg/mL (≈ 133 to 261 µM)	1 to 10 µg/mL (≈ 2.61 to 26.1 µM)	–	11 to 50 µg/mL (≈ 28.7 to 130 µM)	11 to 50 µg/mL (≈ 28.7 to 130 µM)	–
Nc1ccc(OCC#Cc2ccc(C(=O)N[C@@H]3CCN(O)C3=O)cc2)cc1 [CPD-060, (R)-4-(3-(4-aminophenoxy)prop-1-ynyl)-N-(1-hydroxy-2-oxopyrrolidin-3-yl)benzamide]	–	51 to 100 µg/mL (≈ 140 to 274 µM)	1 to 10 µg/mL (≈ 2.74 to 27.4 µM)	–	11 to 50 µg/mL (≈ 30.1 to 137 µM)	11 to 50 µg/mL (≈ 30.1 to 137 µM)	–
C[C@@](O)(CF)[C@H](NC(=O)c1ccc(C#CC#Cc2ccc(N)cc2)cc1)C(=O)NO [CPD-061, 4-((4-aminophenyl)buta-1,3-diynyl)-N-((2S,3S)-4-fluoro-3-hydroxy-1-(hydroxyamino)-3-methyl-1-oxobutan-2-yl)benzamide]	–	51 to 100 µg/mL (≈ 125 to 244 µM)	< 1 µg/mL	–	1 to 10 µg/mL (≈ 2.44 to 24.4 µM)	1 to 10 µg/mL (≈ 2.44 to 24.4 µM)	–
C[C@](O)(c1ccc(CO)cc1)[C@H](NC(=O)c1ccc(C#CC#Cc2ccc(N)cc2)cc1)C(=O)NO [CPD-062, 4-((4-aminophenyl)buta-1,3-diynyl)-N-((2S,3S)-3-hydroxy-1-(hydroxyamino)-3-(4-(hydroxymethyl)phenyl)-1-oxobutan-2-yl)benzamide]	–	51 to 100 µg/mL (≈ 105 to 207 µM)	< 1 µg/mL	–	1 to 10 µg/mL (≈ 2.07 to 20.7 µM)	< 1 µg/mL	–
CC(C)(N)[C@H](NC(=O)c1ccc(C#CC#Cc2ccccc2N)cc1)C(=O)NO [CPD-065, (S)-N-(3-amino-1-(hydroxyamino)-3-methyl-1-oxobutan-2-yl)-4-((2-aminophenyl)buta-1,3-diynyl)benzamide]	–	–	–	–	–	–	MIC (N. gonorrhoeae FA19): 0.1 to 1 µg/mL (≈ 0.256 to 2.56 µM); MIC (N. gonorrhoeae 35/02 [2]): 2 to 4 µg/mL (≈ 5.12 to 10.2 µM)
CC(C)(O)[C@H](NC(=O)c1ccc(C#CC#Cc2ccccc2N)cc1)C(=O)NO [CPD-066, (S)-4-((2-aminophenyl)buta-1,3-diynyl)-N-(3-hydroxy-1-(hydroxyamino)-3-methyl-1-oxobutan-2-yl)benzamide]	–	–	–	–	–	–	MIC (N. gonorrhoeae FA19): 0.1 to 1 µg/mL (≈ 0.255 to 2.55 µM); MIC (N. gonorrhoeae 35/02 [2]): 2 to 4 µg/mL (≈ 5.11 to 10.2 µM)
C[C@@](O)(C(F)F)[C@H](NC(=O)c1ccc(C#CC#Cc2ccccc2N)cc1)C(=O)NO [CPD-067, 4-((2-aminophenyl)buta-1,3-diynyl)-N-((2S,3S)-4,4-difluoro-3-hydroxy-1-(hydroxyamino)-3-methyl-1-oxobutan-2-yl)benzamide]	–	–	–	6 to 10 mm	–	–	MIC (N. gonorrhoeae FA19): < 0.1 µg/mL; MIC (N. gonorrhoeae 35/02 [2]): 0.1 to 1 µg/mL (≈ 0.234 to 2.34 µM); zone of inhibition at 2 µg/disc [3]: 6 to 10 mm
CC1(C)S[C@@H]2[C@H](NC(=O)C(C(=O)O)c3ccccc3)C(=O)N2[C@H]1C(=O)O (stereo partly drawn) [Carbenicillin]	A	–	–	–	–	–	diameter of the growth inhibition, Sus. A.b. Isolate [1]: A
O=C(N[C@H](CO)[C@H](O)c1ccc([N+](=O)[O-])cc1)C(Cl)Cl [Chloramphenicol]	A	–	–	6 to 10 mm	–	–	–
O=C(O)c1cn(C2CC2)c2cc(N3CCNCC3)c(F)cc2c1=O [Ciprofloxacin]	A	–	–	≥ 16 mm	–	–	–
C[C@@H](O)[C@H]1C(=O)N2C(C(=O)O)=C(SCCN=CN)C[C@H]12 [Imipenem]	A	–	–	≥ 16 mm	–	–	–
CN(C)[C@@H]1C(O)=C(C(N)=O)C(=O)[C@@]2(O)C(O)=C3C(=O)c4c(O)cccc4[C@@](C)(O)[C@H]3C[C@@H]12 [Tetracycline]	A	–	–	6 to 10 mm	–	–	–
CO/N=C(\C(=O)N[C@@H]1C(=O)N2C(C(=O)O)=C(CSc3nc(=O)c(=O)[nH]n3C)CS[C@H]12)c1csc(N)n1 [ceftriaxone, reference compound]	A	–	–	–	–	–	MIC (N. gonorrhoeae 35/02 [4]): 0.12 µg/mL (≈ 0.216 µM); diameter of the growth inhibition, Sus. A.b. Isolate [1]: A
C[C@@H](O)[C@H](NC(=O)c1ccc(C#Cc2ccc(CN3CCOCC3)cc2)cc1)C(=O)NO [drawing 320]	–	> 100 µg/mL	< 1 µg/mL	–	–	< 1 µg/mL	MIC (P. aeruginosa (PAO1); [5]): < 1 µg/mL
C[C@@H](O)[C@H](NC(=O)c1ccc(C#Cc2ccc(CN3CCOCC3)cc2)cc1)C(=O)NO [drawing 321]	–	–	–	–	–	–	MIC (N. gonorrhoeae FA19): 8 µg/mL (≈ 18.3 µM); MIC (N. gonorrhoeae 35/02 [2]): 8 µg/mL (≈ 18.3 µM)
Polymyxin B	B (6-10 mm)	–	–	–	–	–	diameter of the growth inhibition, Sus. A.b. Isolate [1]: B (6-10 mm)
penicillin	–	–	–	–	–	–	MIC (N. gonorrhoeae 35/02 [4]): 6 µg/mL
